This is an account of results in patent publication US20230398137A1, “METHODS FOR LOWERING HBA1C LEVEL WITH A COMBINATION OF A BET BROMODOMAIN INHIBITOR AND A SODIUM DEPENDENT GLUCOSE TRANSPORT 2 INHIBITOR” (Resverlogix Corp., priority 2020, published 2023).

Like-named read-outs stand apart in the source and are kept apart here.

Assay [1] has as its system HbA1c. The assay is described as follows: BETonMACE Phase 3 trial (NCT02586155), post-hoc analysis of HbA1c from baseline to last visit on treatment (LVT). It is filed as in vivo, human.
Procedure: Apabetalone (RVX-208) was evaluated in a recently completed clinical Phase 3 trial (BETonMACE; NCT02586155) for the effect on MACE in type 2 diabetes patients with low HDL cholesterol (below 40 mg/dL for males and below 45 mg/dL for females) and a recent acute coronary syndrome (ACS) (preceding 7-90 days). All patients received high intensity statin treatment or maximum tolerated statin treatment, which was 20-40 mg daily or a maximum daily dose of 40 mg for rosuvastatin or 40-80 mg daily or a maximum daily dose of 80 mg for atorvastatin.
Patients (n=2425) with ACS in the preceding 7 to 90 days, with type 2 diabetes and low HDL cholesterol (≤40 mg/dl for men, ≤45 mg/dl for women), receiving intensive or maximum-tolerated therapy with atorvastatin or rosuvastatin, were assigned in double-blind fashion to receive apabetalone 100 mg orally twice daily or matching placebo.
Specifically, a total of 150 patients received both RVX-208 and an SGLT2 inhibitor; a total of 148 received an SGLT2 inhibitor, but no RVX-208; a total of 1062 received RVX-208, but no SGLT2 inhibitor; a total of 1058 received neither RVX-208 or an SGLT2 inhibitor.
Patients who were randomized and received at least one dose of SGLT2 treatment while actively receiving study drug (RVX-208 or placebo) were counted as those receiving a combination of SGLT2 treatment with either RVX-208 or placebo. Patients receiving more than one drug therapy within the SGLT2 inhibitor class were counted only once based upon whichever drug therapy patients continued taking at the end of treatment with study drug (RVX-208 or placebo). In cases where patients were receiving more than one drug therapy within the SGLT2 inhibitor class at the end of treatment with study drug, whichever SGLT2 inhibitor therapy was received for longer was counted.
The last visit on treatment (LVT) timepoint represented the longest study exposure duration for patients receiving RVX-208 or placebo with and without SGLT2 inhibitors and is the focus of this analysis.
Assay [2] concerns HbA1c. The settings on record: over the duration of the trial; 95% CI −0.61 to −0.56; p<0.001; cited from earlier work.
In assay [3] the test system is HbA1c. The settings on record: T2DM and albuminuric CKD, cited from earlier work.
Assay [4] concerns HbA1c. Particulars: cited from earlier work.

Take `COc1cc(OC)c2c(=O)[nH]c(-c3cc(C)c(OCCO)c(C)c3)nc2c1` [RVX-208, 2-(4-(2-hydroxyethoxy)-3,5-dimethylphenyl)-5,7-dimethoxyquinazolin-4(3H)-one]: the “ability to reduce levels of HbA1c (in words)” value with HbA1c [1] (T2DM patients with a recent ACS) was “did not demonstrate the ability to statistically reduce levels of HbA1c”. In the assay on HbA1c [1] (T2DM patients with low HDL cholesterol and recent ACS on high intensity or maximum tolerated statin, baseline value of the group), the “median HbA1c at baseline” value is reported as 7.3%. The “median HbA1c at the last visit on treatment (LVT)” value in the assay with HbA1c [1] (T2DM patients with recent ACS on statin, apabetalone 100 mg orally twice daily where given, median time to LVT about 2 years) was 7.3%. Further, the “median change of HbA1c from baseline to LVT” value in the assay on HbA1c [1] (T2DM patients with recent ACS, FIG. 3) is on record as “+0.20%”. For the same compound, in the assay with HbA1c [1] (T2DM patients with recent ACS, FIG. 4), the “mean change of HbA1c from baseline to LVT” value was “+0.22%”.

Take `Cc1ccc([C@@H]2O[C@H](CO)[C@@H](O)[C@H](O)[C@H]2O)cc1Cc1ccc(-c2ccc(F)cc2)s1` [canagliflozin]: the “mean difference in HbA1c between drug group and placebo group” value in the assay on HbA1c [2] is given as −0.58%. Moreover, the “least-squares mean level of HbA1c lower than in the placebo group by” value with HbA1c [3] (at 13 weeks, 95% CI 0.26 to 0.37) is given as 0.31%. In addition, the “overall mean difference in the reduction of HbA1c versus placebo” value in the assay with HbA1c [3] (throughout the trial, 95% CI 0.20 to 0.31) was 0.25%.

With `OC[C@H]1O[C@@H](c2ccc(Cl)c(Cc3ccc(O[C@H]4CCOC4)cc3)c2)[C@H](O)[C@@H](O)[C@@H]1O` [empagliflozin], the “reduction of HbA1c compared to placebo (adjusted mean difference)” value in the assay on HbA1c [4] (10-mg group, after 12 weeks, 95% CI −0.58 to −0.49) is 0.54%. Moreover, the “adjusted mean difference in HbA1c levels versus placebo” value is listed as −0.42% in the assay with HbA1c [4] (10-mg group, week 94, 95% CI −0.48 to −0.36); −0.24% with HbA1c [4] (10-mg group, week 206, 95% CI −0.40 to −0.08); −0.47% in the assay with HbA1c [4] (25-mg group, week 94, 95% CI −0.54 to −0.41); −0.36% in the assay on HbA1c [4] (25-mg group, week 206, 95% CI −0.51 to −0.20). For the same compound, in the assay on HbA1c [4] (25-mg group, after 12 weeks, 95% CI −0.64 to −0.55), the “adjusted mean difference in HbA1c compared to placebo” value is given as −0.60 percentage points.
